Data taken from ChEMBL document CHEMBL5247643, “Discovery and Characterization of BAY-805, a Potent and Selective Inhibitor of Ubiquitin-Specific Protease USP21” (J Med Chem, 2023).
Activity calls are given as the source filed them. The rule behind the calls is not given here.

Key:
Conditions in all cases: dose 10-50 µM
[1] = target: T1, Ubiquitin carboxyl-terminal hydrolase 5 (Homo sapiens) (UniProt P45974); assay: Inhibition of human USP5 using ubiquitin rhodamine 110 as substrate at 10 to 50 uM by fluorometric assay
T1 sequence (whole entry): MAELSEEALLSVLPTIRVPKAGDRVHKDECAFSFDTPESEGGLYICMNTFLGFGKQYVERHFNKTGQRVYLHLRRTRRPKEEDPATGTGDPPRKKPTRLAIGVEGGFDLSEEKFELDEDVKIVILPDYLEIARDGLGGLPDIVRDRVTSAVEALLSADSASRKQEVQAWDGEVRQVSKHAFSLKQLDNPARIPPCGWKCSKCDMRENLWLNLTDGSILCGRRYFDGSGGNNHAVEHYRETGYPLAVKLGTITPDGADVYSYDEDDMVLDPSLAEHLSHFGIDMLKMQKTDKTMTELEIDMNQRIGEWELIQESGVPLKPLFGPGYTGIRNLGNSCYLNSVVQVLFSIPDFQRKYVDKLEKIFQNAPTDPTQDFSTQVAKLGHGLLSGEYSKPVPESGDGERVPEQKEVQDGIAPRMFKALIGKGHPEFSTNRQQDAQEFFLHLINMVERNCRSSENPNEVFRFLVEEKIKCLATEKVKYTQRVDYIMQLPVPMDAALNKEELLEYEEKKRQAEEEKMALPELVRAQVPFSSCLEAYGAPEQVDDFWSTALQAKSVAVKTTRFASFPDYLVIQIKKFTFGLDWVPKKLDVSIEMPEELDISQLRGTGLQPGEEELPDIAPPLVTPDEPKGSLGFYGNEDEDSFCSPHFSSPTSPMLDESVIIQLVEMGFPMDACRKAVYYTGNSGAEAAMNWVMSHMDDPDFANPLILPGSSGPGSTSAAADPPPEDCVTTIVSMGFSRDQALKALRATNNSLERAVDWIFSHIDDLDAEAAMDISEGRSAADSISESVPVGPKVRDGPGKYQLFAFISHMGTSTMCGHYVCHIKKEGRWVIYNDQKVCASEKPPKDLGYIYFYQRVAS

[2] = target: Ubiquitin carboxyl-terminal hydrolase 7 (Homo sapiens) (UniProt Q93009); assay: Inhibition of human USP7 using ubiquitin rhodamine 110 as substrate at 10 to 50 uM by fluorometric assay
[3] = target: T2, Ubiquitin carboxyl-terminal hydrolase 8 (Homo sapiens) (UniProt P40818); assay: Inhibition of human USP8 (734 to 1110 residues) expressed in Escherichia coli BL21 (DE3) using ubiquitin rhodamine 110 as substrate assessed as remaining enzyme activity at 10 to 50 uM by fluorometric assay
T2 sequence (whole entry): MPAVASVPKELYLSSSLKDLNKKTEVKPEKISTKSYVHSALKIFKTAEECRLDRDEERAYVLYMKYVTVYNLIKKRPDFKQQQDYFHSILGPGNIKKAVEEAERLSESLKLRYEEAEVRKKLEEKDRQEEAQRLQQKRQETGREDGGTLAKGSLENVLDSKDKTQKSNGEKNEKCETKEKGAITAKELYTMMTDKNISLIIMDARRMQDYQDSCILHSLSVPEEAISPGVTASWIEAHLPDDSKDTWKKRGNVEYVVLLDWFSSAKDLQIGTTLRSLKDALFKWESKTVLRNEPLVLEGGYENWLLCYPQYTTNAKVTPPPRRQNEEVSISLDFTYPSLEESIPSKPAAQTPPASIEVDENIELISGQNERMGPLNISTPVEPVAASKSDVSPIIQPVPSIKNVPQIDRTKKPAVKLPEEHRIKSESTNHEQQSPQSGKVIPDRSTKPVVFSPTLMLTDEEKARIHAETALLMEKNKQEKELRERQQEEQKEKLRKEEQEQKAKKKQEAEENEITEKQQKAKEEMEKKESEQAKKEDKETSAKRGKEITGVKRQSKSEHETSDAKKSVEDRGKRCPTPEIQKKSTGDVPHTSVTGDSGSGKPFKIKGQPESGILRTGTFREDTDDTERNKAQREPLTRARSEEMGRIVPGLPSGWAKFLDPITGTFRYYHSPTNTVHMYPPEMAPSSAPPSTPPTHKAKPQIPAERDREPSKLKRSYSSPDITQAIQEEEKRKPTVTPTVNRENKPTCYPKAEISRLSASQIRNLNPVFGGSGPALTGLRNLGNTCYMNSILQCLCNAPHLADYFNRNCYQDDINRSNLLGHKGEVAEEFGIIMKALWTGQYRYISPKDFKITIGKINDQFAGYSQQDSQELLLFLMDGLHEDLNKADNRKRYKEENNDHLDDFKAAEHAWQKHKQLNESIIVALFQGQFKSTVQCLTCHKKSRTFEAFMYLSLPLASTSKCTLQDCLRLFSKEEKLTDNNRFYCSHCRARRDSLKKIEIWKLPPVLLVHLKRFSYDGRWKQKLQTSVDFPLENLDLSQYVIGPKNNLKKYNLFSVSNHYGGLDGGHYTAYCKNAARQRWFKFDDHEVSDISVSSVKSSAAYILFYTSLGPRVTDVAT

Ubiquitin carboxyl-terminal hydrolase 7 (Homo sapiens), sequence (Q93009 whole entry, looked up, the tested form may be a part): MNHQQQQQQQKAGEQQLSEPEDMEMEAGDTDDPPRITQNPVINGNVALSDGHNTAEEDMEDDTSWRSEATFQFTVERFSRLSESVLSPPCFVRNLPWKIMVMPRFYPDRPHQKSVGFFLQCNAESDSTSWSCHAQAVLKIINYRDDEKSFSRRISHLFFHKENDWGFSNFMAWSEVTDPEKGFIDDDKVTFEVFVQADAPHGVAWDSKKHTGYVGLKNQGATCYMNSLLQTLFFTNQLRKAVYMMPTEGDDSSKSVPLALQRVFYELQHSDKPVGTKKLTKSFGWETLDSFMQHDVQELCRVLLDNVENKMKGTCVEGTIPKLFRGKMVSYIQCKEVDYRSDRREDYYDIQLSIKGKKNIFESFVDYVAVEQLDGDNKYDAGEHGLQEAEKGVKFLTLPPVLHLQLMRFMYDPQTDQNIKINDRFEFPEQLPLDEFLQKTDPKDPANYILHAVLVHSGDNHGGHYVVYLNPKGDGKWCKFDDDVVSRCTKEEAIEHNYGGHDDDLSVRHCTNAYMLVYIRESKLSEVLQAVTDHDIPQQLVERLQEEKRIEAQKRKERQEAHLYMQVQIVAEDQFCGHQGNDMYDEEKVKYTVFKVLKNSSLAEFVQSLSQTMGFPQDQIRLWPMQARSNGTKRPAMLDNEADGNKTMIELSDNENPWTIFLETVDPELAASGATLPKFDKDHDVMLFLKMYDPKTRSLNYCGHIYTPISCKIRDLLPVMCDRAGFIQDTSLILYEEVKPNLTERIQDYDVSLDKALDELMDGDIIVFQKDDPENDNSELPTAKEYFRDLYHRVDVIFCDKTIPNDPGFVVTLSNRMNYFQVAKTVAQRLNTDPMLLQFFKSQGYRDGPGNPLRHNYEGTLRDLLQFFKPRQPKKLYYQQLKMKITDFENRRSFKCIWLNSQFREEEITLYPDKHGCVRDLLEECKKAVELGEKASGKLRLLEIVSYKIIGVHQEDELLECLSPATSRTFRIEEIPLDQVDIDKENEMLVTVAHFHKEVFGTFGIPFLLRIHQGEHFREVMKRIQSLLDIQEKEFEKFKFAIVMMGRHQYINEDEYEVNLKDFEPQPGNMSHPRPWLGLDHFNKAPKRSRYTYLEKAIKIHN

Row | Structure (SMILES) | inhibition [1] | inhibition [2] | Activity [3]
1 | CC(C)C[C@H](NC(=O)C1(C(F)(F)F)CCCCC1)C(=O)Nc1nnc(Cc2ccc(C#N)cc2)s1 | inactive | inactive | 
2 | CC(NC(=O)C1CCCC1)C(=O)Nc1nnc(Cc2ccc([N+](=O)[O-])cc2)s1 (racemic) |  |  | < 50%
